Data reported in EP1840211A1, “Pyranosone dehydratase from phanerochaete chrysosporium” (DANISCO A/S, priority 2001, dated 2003).
Converted amounts (≈) assume the structure as drawn.

How the values were obtained:
Aphanomyces = assay: Field emergence trial (Trial FEHCP034 Aphanomyces); assay type: in vivo, sugar beet; details: pellets containing the substance, result in words
Text: Based on these findings, the efficiency of microthecin was further investigated in a field emergence trial. The trial was sown relatively late giving it a higher chance for presence of the pathogen Aphanomyces in the trial field.
Seeds were pelleted with standard P1 pelleting mass with (1,2) or without (7,8)Thiram.
Inner coating: 0,3gai/U microthecin as a 0,5% solution in water or 14,7gai/U Hymexazol. 60gai/U Imidacloprid. Standard metallic green seed cover film.
The following combinations were included in the trial: R F0 Without fungicides R FT With Thiram (in pellet) R FH With Hymexazol R FM With Microthecin R P1 STD With Thiram (in pellet) + Hymexazol R FTM With Thiram (in pellet) + Microthecin Trial place Bukkehave, DK. (4 reps, 200 seeds/plot) Trial sown 21.05.2002 1. Count 28.05.2002 (speed) 2. Count 29.05.2002 (speed) 3. Count 24.06.2002 (final)

sugar beet seeds = assay: Laboratory germination of pelleted sugar beet seeds; assay type: in vivo; details: result in words
Pythium ultimum = assay: Agar plate inhibition zone test (PDA medium); assay type: cell-based; details: Globisporangium ultimum; judged after 1-2 days of growth; read-out: minimum inhibition concentration (mic)
Experimental: (§1) A circular plug (diameter 10 mm) of fresh mycelium was placed at the centre on a petri-dish (diameter 9 cm) containing PDA medium. (PDA= Potato dextrose agar Difco no. 213400). Wells with a diameter of 5 mm were cut along the periphery of the agar plate. In each well were placed 50 µl of a test solution. Alternatively, 20 µl of each test solution were placed directly on the agar along the periphery of the plate. Also, 50µl of each test solution were placed directly on top of the fungal mycelium plug.
(§2) The agar plates were placed at room temperature in daylight, but protected from direct sunlight.
(§3) The reaction (inhibition zones) of the fungi to the test substance was judged as follows: Rhizoctonia solani: after 2-3 days of growth Pythium ultimum: after 1-2 days of growth Aphanomyces cochlioides: after 3-4 days of growth Cercospora beticola after 3-4 weeks of growth

Rhizoctonia solani = assay: Agar plate inhibition zone test (PDA medium); assay type: cell-based; details: judged after 2-3 days of growth, read-out: minimum inhibition concentration (mic)
Experimental: as §1, §2, §3

Aphanomyces cochlioides [1] = assay: Agar plate inhibition zone test (PDA medium); assay type: cell-based; details: judged after 3-4 days of growth, read-out: minimum inhibition concentration (mic)
Experimental: as §1, §2, §3

Cercospora beticola = assay: Agar plate inhibition zone test (PDA medium); assay type: cell-based; details: judged after 3-4 weeks of growth, read-out: minimum inhibition concentration (mic)
Experimental: as §1, §2, §3

B. Pumilus DS96.734 = assay: Similar growth tests with other microorganisms (Example 4); assay type: cell-based
Experimental: (§4) In each case, microthecin was dissolved in water and placed in wells in the periphery. An agar block containing the pathogen was placed in the centre. The pathogens were allowed to grow out on the PDA-agar plates for 3-5 days.

P. fluorescens DS96.578 = assay: as above; assay type: cell-based
Experimental: as §4

P. mendocina DS98.124 = assay: as above; assay type: cell-based
Experimental: as §4

B. megaterium DS98.124 = assay: as above; assay type: cell-based
Experimental: as §4

Cercospora = assay: as above; assay type: cell-based
Experimental: as §4

Aphanomyces cochlioides [2] = assay: Screening for growth inhibition on agar-plates (Example 4); assay type: cell-based; details: very low concentrations; in wells on PDA-agar plates, 3-5 days
Experimental: The effect of microthecin on the plant pathogenic fungi Pythium ultimum, Rhizoctonia solani and Aphanomyces cochlioides in vitro was investigated by screening for growth inhibition of the pathogens on agar-plates (Figures 6, 7, 8).
as §4

[3] = target: T1, pyranosone dehydratase (PD) (Phanerodontia chrysosporium, UniProt P84193); assay: Conversion of AF or glucosone by PD, monitored at 226nm; assay type: biochemical, Phanerochaete chrysosporium; details: for OD226nm: 22°C, 5.5 hours
T1 construct: from tissue; host or cells: Phanerochaete chrysosporium (enzyme purified from the fungus' cell-free extract)
T1 sequence (P84193 8-900 limits assumed): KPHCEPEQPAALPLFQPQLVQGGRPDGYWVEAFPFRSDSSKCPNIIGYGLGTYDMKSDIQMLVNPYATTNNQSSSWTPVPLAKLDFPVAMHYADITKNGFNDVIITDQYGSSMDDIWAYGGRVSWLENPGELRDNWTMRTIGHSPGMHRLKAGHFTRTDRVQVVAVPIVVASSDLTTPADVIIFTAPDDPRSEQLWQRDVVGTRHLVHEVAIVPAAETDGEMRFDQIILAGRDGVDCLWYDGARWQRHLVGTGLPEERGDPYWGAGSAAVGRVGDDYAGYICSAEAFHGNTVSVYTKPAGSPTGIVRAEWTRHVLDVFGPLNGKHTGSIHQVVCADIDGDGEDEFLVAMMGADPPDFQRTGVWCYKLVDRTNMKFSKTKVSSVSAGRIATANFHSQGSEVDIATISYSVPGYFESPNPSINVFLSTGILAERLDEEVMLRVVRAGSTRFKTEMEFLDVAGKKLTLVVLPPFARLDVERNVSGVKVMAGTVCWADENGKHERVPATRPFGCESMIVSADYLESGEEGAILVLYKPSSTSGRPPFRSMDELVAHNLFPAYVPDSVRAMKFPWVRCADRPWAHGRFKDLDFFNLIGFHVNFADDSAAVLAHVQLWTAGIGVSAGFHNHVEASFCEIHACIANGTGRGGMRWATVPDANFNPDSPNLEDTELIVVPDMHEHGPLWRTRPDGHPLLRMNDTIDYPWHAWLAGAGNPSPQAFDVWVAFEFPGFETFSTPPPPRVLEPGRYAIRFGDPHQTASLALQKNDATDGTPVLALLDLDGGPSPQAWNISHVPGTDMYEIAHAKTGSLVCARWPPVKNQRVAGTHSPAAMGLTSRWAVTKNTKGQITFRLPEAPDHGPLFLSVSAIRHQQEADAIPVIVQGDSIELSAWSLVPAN
Experimental: The reaction system consisted of AF or glucosone 1-15µl, 25µl sodium phosphate buffer (6.5. 0.1M), water, 1.4µl PD to a final volume of 200µl. The reaction was performed at 22°C for 5.5 hours. The formation of microthecin from AF and cortalcerone from glucosone were monitorered at 226nm.

[4] = final substrate concentration 13.7 µg/ml reaction mixture
[5] = final substrate concentration 27.4 µg/ml reaction mixture
[6] = final substrate concentration 41.1 µg/ml reaction mixture
[7] = final substrate concentration 68.4 µg/ml reaction mixture
[8] = final substrate concentration 95.8 µg/ml reaction mixture
[9] = final substrate concentration 137 µg/ml reaction mixture
[10] = final substrate concentration 205 µg/ml reaction mixture

Cc1cc(O)no1 [Hymexazol, reference compound] was tested, and the speed of germination (Aphanomyces) was “relatively slow” and the “4d>15mm germination” value (sugar beet seeds) was “low”.

With O=C1C=CCOC1(O)CO (stereo not drawn) [microthecin] the MIC (Pythium ultimum) was 480 µg/mL (≈ 3.33 mM), the MIC (Rhizoctonia solani) was 240 µg/mL (≈ 1.67 mM) and the MIC (Aphanomyces cochlioides [1]) was 1200 µg/mL (≈ 8.33 mM). The MIC (Cercospora beticola) was 2400 µg/mL (≈ 16.7 mM), the final germination (Aphanomyces) was “high final germination” and the speed of germination (Aphanomyces) was “comparable with pellets only containing Thiram”. The “effect on the growth” value (B. Pumilus DS96.734) was “no effect”, the effect on growth (P. fluorescens DS96.578) was “slightly affected” and the effect on growth (P. mendocina DS98.124) was “slightly affected”. For the same compound, the “effect on the growth” value (B. megaterium DS98.124) was “no effect”, the “effect on Cercospora” value (Cercospora) was “no effect” and the “growth of Aphanomyces” value (Aphanomyces cochlioides [2]) was “able to reduce the growth”. For the same compound, the “speed of laboratory germination (4d)” value (sugar beet seeds; inclusion in the pellet) was “decreases the speed of laboratory germination”.

Work on O=CC(=O)[C@@H](O)[C@H](O)[C@H](O)CO [Glucosone, D-arabino-hexos-2-ulose] yielded an OD226nm [3, 4] of 0.069, an OD226nm [3, 5] of 0.104 and an OD226nm [3, 6] of 0.141. For the same compound, the OD226nm [3, 7] was 0.238, the OD226nm [3, 8] was 0.323 and the OD226nm [3, 9] was 0.484. For the same compound, the OD226nm [3, 10] was 0.634.

O=C1CO[C@H](CO)[C@@H](O)[C@@H]1O [AF, 1,5-anhydro-D-fructose] gave an OD226nm [3, 4] of 0.308, an OD226nm [3, 5] of 0.534 and an OD226nm [3, 6] of 0.76. The OD226nm [3, 7] was 1.246, the OD226nm [3, 8] was 1.764 and the OD226nm [3, 9] was 2.43. For the same compound, the OD226nm [3, 10] was 2.943 and the “Vmax higher with AF than with glucosone” value ([3]; ratio AF vs glucosone as PD substrate) was “around 4.7 times”.
